Species on record: Rattus norvegicus
Experiment: Open TG-GATES - Regimen: Single
Assay type: toxicity, organism-based, Sprague-Dawley
Design: regimen Single, gender Male, age 6 weeks
Conditions: in vivo, po, 50 mg/kg, route gavage, dose level Low; for APTT / Bas / Eos / Fbg / Hb / Ht / Lym / MCH / MCHC / MCV / Mono / Neu / PT / Plat / RBC / Ret / WBC: tissue Blood; for KIDNEY_L / KIDNEY_R / KIDNEY_TOTAL: tissue Kidney; for LIVER: tissue Liver; for A/G / ALP / ALT / AST / BUN / CRE / Ca / Cl / DBIL / GLC / IP / K / LDH / Na / PL / RALB / TBIL / TC / TG / TP / gamma-GTP: tissue Plasma

Question: With `CC(=O)Oc1cc(C(C)C)c(OCCN(C)C)cc1C` [MOXISYLYTE] as the molecule, how does the TERMINAL_BW (3 h) read?
Answer: 210.1 g

Question: And the APTT (3 h)?
Answer: 21.8 s

Question: What about the Bas (3 h) of the same molecule?
Answer: 0%

Question: What about the Eos (3 h) of the same molecule?
Answer: 1.2%

Question: What about the Fbg (3 h) of the same molecule?
Answer: 298.6 mg/dL

Question: And the Hb (3 h)?
Answer: 13.1 g/dL

Question: And the Ht (3 h)?
Answer: 38.6%

Question: And the Lym (3 h)?
Answer: 80%

Question: What about the MCH (3 h) of the same molecule?
Answer: 21 pg

Question: And the MCHC (3 h)?
Answer: 34%

Question: What about the MCV (3 h) of the same molecule?
Answer: 61.9 fL

Question: What about the Mono (3 h) of the same molecule?
Answer: 2.4%

Question: What about the Neu (3 h) of the same molecule?
Answer: 15.8%

Question: And the PT (3 h)?
Answer: 16.3 s

Question: What about the Plat (3 h) of the same molecule?
Answer: 122 x10_4/uL

Question: What about the RBC (3 h) of the same molecule?
Answer: 624.4 x10_4/ul

Question: And the Ret (3 h)?
Answer: 8.5%

Question: And the WBC (3 h)?
Answer: 93.6 x10_2/uL

Question: And the KIDNEY_L (3 h)?
Answer: 0.9 g

Question: And the KIDNEY_R (3 h)?
Answer: 0.9 g

Question: And the KIDNEY_TOTAL (3 h)?
Answer: 1.9 g

Question: What about the LIVER (3 h) of the same molecule?
Answer: 9.4 g

Question: And the A/G (3 h)?
Answer: 1.2

Question: And the ALP (3 h)?
Answer: 1650.4 IU/L

Question: What about the ALT (3 h) of the same molecule?
Answer: 42.8 IU/L

Question: And the AST (3 h)?
Answer: 80.2 IU/L

Question: What about the BUN (3 h) of the same molecule?
Answer: 13.8 mg/dL

Question: What about the CRE (3 h) of the same molecule?
Answer: 0.1 mg/dL

Question: And the Ca (3 h)?
Answer: 10.8 mg/dL

Question: What about the Cl (3 h) of the same molecule?
Answer: 107.6 meq/L

Question: What about the DBIL (3 h) of the same molecule?
Answer: 0.002 mg/dL

Question: And the GLC (3 h)?
Answer: 180.2 mg/dL

Question: What about the IP (3 h) of the same molecule?
Answer: 8.6 mg/dL

Question: What about the K (3 h) of the same molecule?
Answer: 4.5 meq/L

Question: And the LDH (3 h)?
Answer: 254.2 IU/L

Question: What about the Na (3 h) of the same molecule?
Answer: 142.4 meq/L

Question: What about the PL (3 h) of the same molecule?
Answer: 134.8 mg/dL

Question: What about the RALB (3 h) of the same molecule?
Answer: 3 g/dL

Question: And the TBIL (3 h)?
Answer: 0.018 mg/dL

Question: What about the TC (3 h) of the same molecule?
Answer: 72.6 mg/dL

Question: And the TG (3 h)?
Answer: 70.2 mg/dL

Question: What about the TP (3 h) of the same molecule?
Answer: 5.4 g/dL

Question: And the gamma-GTP (3 h)?
Answer: 1 IU/L

Question: What about the TERMINAL_BW (6 h) of the same molecule?
Answer: 210.4 g

Question: And the APTT (6 h)?
Answer: 22.1 s

Question: And the Bas (6 h)?
Answer: 0%

Question: What about the Eos (6 h) of the same molecule?
Answer: 0.8%

Question: And the Fbg (6 h)?
Answer: 309.8 mg/dL

Question: What about the Hb (6 h) of the same molecule?
Answer: 13 g/dL

Question: And the Ht (6 h)?
Answer: 37.8%

Question: What about the Lym (6 h) of the same molecule?
Answer: 77%

Question: What about the MCH (6 h) of the same molecule?
Answer: 21.3 pg

Question: What about the MCHC (6 h) of the same molecule?
Answer: 34.5%

Question: What about the MCV (6 h) of the same molecule?
Answer: 61.7 fL

Question: And the Mono (6 h)?
Answer: 2.4%

Question: And the Neu (6 h)?
Answer: 18.8%

Question: What about the PT (6 h) of the same molecule?
Answer: 15.9 s

Question: What about the Plat (6 h) of the same molecule?
Answer: 116 x10_4/uL

Question: And the RBC (6 h)?
Answer: 612.6 x10_4/ul

Question: What about the Ret (6 h) of the same molecule?
Answer: 8.4%

Question: What about the WBC (6 h) of the same molecule?
Answer: 70 x10_2/uL

Question: What about the KIDNEY_L (6 h) of the same molecule?
Answer: 0.9 g

Question: And the KIDNEY_R (6 h)?
Answer: 0.9 g

Question: What about the KIDNEY_TOTAL (6 h) of the same molecule?
Answer: 1.9 g

Question: And the LIVER (6 h)?
Answer: 9 g

Question: What about the A/G (6 h) of the same molecule?
Answer: 1.3

Question: What about the ALP (6 h) of the same molecule?
Answer: 1379.6 IU/L

Question: What about the ALT (6 h) of the same molecule?
Answer: 35.8 IU/L

Question: What about the AST (6 h) of the same molecule?
Answer: 70.6 IU/L

Question: And the BUN (6 h)?
Answer: 11 mg/dL

Question: What about the CRE (6 h) of the same molecule?
Answer: 0.1 mg/dL

Question: What about the Ca (6 h) of the same molecule?
Answer: 10.6 mg/dL

Question: And the Cl (6 h)?
Answer: 107.4 meq/L

Question: What about the DBIL (6 h) of the same molecule?
Answer: 0.004 mg/dL

Question: What about the GLC (6 h) of the same molecule?
Answer: 181.4 mg/dL

Question: What about the IP (6 h) of the same molecule?
Answer: 9.2 mg/dL

Question: What about the K (6 h) of the same molecule?
Answer: 4.4 meq/L

Question: What about the LDH (6 h) of the same molecule?
Answer: 189 IU/L

Question: What about the Na (6 h) of the same molecule?
Answer: 141.4 meq/L

Question: And the PL (6 h)?
Answer: 146.8 mg/dL

Question: What about the RALB (6 h) of the same molecule?
Answer: 3 g/dL

Question: What about the TBIL (6 h) of the same molecule?
Answer: 0.028 mg/dL

Question: What about the TC (6 h) of the same molecule?
Answer: 84.2 mg/dL

Question: And the TG (6 h)?
Answer: 74 mg/dL

Question: What about the TP (6 h) of the same molecule?
Answer: 5.3 g/dL

Question: And the gamma-GTP (6 h)?
Answer: 1 IU/L

Question: What about the TERMINAL_BW (9 h) of the same molecule?
Answer: 208.4 g

Question: And the APTT (9 h)?
Answer: 20.8 s

Question: And the Bas (9 h)?
Answer: 0%

Question: What about the Eos (9 h) of the same molecule?
Answer: 0.4%

Question: What about the Fbg (9 h) of the same molecule?
Answer: 309.8 mg/dL

Question: And the Hb (9 h)?
Answer: 13.3 g/dL

Question: What about the Ht (9 h) of the same molecule?
Answer: 38.7%

Question: And the Lym (9 h)?
Answer: 83.4%

Question: What about the MCH (9 h) of the same molecule?
Answer: 21.2 pg

Question: What about the MCHC (9 h) of the same molecule?
Answer: 34.4%

Question: What about the MCV (9 h) of the same molecule?
Answer: 61.8 fL

Question: And the Mono (9 h)?
Answer: 1.4%

Question: What about the Neu (9 h) of the same molecule?
Answer: 14.2%

Question: And the PT (9 h)?
Answer: 15.8 s

Question: What about the Plat (9 h) of the same molecule?
Answer: 122.4 x10_4/uL

Question: What about the RBC (9 h) of the same molecule?
Answer: 627 x10_4/ul

Question: And the Ret (9 h)?
Answer: 8.1%

Question: And the WBC (9 h)?
Answer: 81 x10_2/uL

Question: What about the KIDNEY_L (9 h) of the same molecule?
Answer: 0.9 g

Question: What about the KIDNEY_R (9 h) of the same molecule?
Answer: 0.9 g

Question: And the KIDNEY_TOTAL (9 h)?
Answer: 1.8 g

Question: What about the LIVER (9 h) of the same molecule?
Answer: 8.6 g

Question: What about the A/G (9 h) of the same molecule?
Answer: 1.3

Question: What about the ALP (9 h) of the same molecule?
Answer: 1432 IU/L

Question: What about the ALT (9 h) of the same molecule?
Answer: 40.6 IU/L

Question: What about the AST (9 h) of the same molecule?
Answer: 71.2 IU/L

Question: What about the BUN (9 h) of the same molecule?
Answer: 12 mg/dL

Question: What about the CRE (9 h) of the same molecule?
Answer: 0.1 mg/dL

Question: What about the Ca (9 h) of the same molecule?
Answer: 10.6 mg/dL

Question: What about the Cl (9 h) of the same molecule?
Answer: 108.2 meq/L

Question: What about the DBIL (9 h) of the same molecule?
Answer: 0.012 mg/dL

Question: What about the GLC (9 h) of the same molecule?
Answer: 182.6 mg/dL

Question: And the IP (9 h)?
Answer: 9.4 mg/dL

Question: And the K (9 h)?
Answer: 4.3 meq/L

Question: What about the LDH (9 h) of the same molecule?
Answer: 242.6 IU/L

Question: And the Na (9 h)?
Answer: 143 meq/L

Question: What about the PL (9 h) of the same molecule?
Answer: 144.8 mg/dL

Question: What about the RALB (9 h) of the same molecule?
Answer: 3.1 g/dL

Question: What about the TBIL (9 h) of the same molecule?
Answer: 0.018 mg/dL

Question: And the TC (9 h)?
Answer: 82.6 mg/dL

Question: What about the TG (9 h) of the same molecule?
Answer: 84.2 mg/dL

Question: What about the TP (9 h) of the same molecule?
Answer: 5.6 g/dL

Question: And the gamma-GTP (9 h)?
Answer: 1.2 IU/L

Question: And the TERMINAL_BW (24 h)?
Answer: 221.4 g

Question: What about the APTT (24 h) of the same molecule?
Answer: 19.7 s

Question: What about the Bas (24 h) of the same molecule?
Answer: 0%

Question: And the Eos (24 h)?
Answer: 1%

Question: What about the Fbg (24 h) of the same molecule?
Answer: 309 mg/dL

Question: And the Hb (24 h)?
Answer: 13.2 g/dL

Question: What about the Ht (24 h) of the same molecule?
Answer: 38.3%

Question: What about the Lym (24 h) of the same molecule?
Answer: 79.4%

Question: What about the MCH (24 h) of the same molecule?
Answer: 21.2 pg

Question: What about the MCHC (24 h) of the same molecule?
Answer: 34.5%

Question: And the MCV (24 h)?
Answer: 61.5 fL

Question: And the Mono (24 h)?
Answer: 2.2%

Question: What about the Neu (24 h) of the same molecule?
Answer: 16.8%

Question: And the PT (24 h)?
Answer: 15.8 s

Question: And the Plat (24 h)?
Answer: 122.9 x10_4/uL

Question: What about the RBC (24 h) of the same molecule?
Answer: 622.4 x10_4/ul

Question: And the Ret (24 h)?
Answer: 8.5%

Question: And the WBC (24 h)?
Answer: 94.4 x10_2/uL

Question: What about the KIDNEY_L (24 h) of the same molecule?
Answer: 0.9 g

Question: What about the KIDNEY_R (24 h) of the same molecule?
Answer: 0.9 g

Question: What about the KIDNEY_TOTAL (24 h) of the same molecule?
Answer: 1.9 g

Question: And the LIVER (24 h)?
Answer: 10.7 g

Question: What about the A/G (24 h) of the same molecule?
Answer: 1.2

Question: What about the ALP (24 h) of the same molecule?
Answer: 1498.2 IU/L

Question: What about the ALT (24 h) of the same molecule?
Answer: 52.4 IU/L

Question: And the AST (24 h)?
Answer: 89.6 IU/L

Question: What about the BUN (24 h) of the same molecule?
Answer: 18.4 mg/dL

Question: And the CRE (24 h)?
Answer: 0.1 mg/dL

Question: And the Ca (24 h)?
Answer: 11.1 mg/dL

Question: And the Cl (24 h)?
Answer: 107 meq/L

Question: What about the DBIL (24 h) of the same molecule?
Answer: 0 mg/dL

Question: And the GLC (24 h)?
Answer: 181.8 mg/dL

Question: What about the IP (24 h) of the same molecule?
Answer: 7.5 mg/dL

Question: What about the K (24 h) of the same molecule?
Answer: 4.4 meq/L

Question: And the LDH (24 h)?
Answer: 271 IU/L

Question: And the Na (24 h)?
Answer: 142 meq/L

Question: And the PL (24 h)?
Answer: 163.4 mg/dL

Question: And the RALB (24 h)?
Answer: 3.1 g/dL

Question: What about the TBIL (24 h) of the same molecule?
Answer: 0.002 mg/dL

Question: What about the TC (24 h) of the same molecule?
Answer: 84.8 mg/dL

Question: And the TG (24 h)?
Answer: 117 mg/dL

Question: What about the TP (24 h) of the same molecule?
Answer: 5.8 g/dL

Question: And the gamma-GTP (24 h)?
Answer: 1.2 IU/L

Source: ChEMBL document CHEMBL3885861, “Open TG-GATES”
